Data on 19 compounds can be found in publication PMC12526203, “Multicomponent Synthesis of Multi-Target Quinazolines Modulating Cholinesterase, Oxidative Stress, and Amyloid Aggregation Activities for the Therapy of Alzheimer’s Disease” (Molecules, 2025).

Values joined by “and” are separate entries in the source; they are usually repeats but may differ in a detail not shown here. Identical values can stand only once. “Also recorded” adds a separate entry of the source. Like-named read-outs stand apart in the source and are kept apart here.

The target of test [1] is T1, Electrophorus electricus AChE (EeAChE) (Electrophorus electricus, UniProt O42275).
T1 construct: purchased Merck
T1 sequence (O42275 24-633): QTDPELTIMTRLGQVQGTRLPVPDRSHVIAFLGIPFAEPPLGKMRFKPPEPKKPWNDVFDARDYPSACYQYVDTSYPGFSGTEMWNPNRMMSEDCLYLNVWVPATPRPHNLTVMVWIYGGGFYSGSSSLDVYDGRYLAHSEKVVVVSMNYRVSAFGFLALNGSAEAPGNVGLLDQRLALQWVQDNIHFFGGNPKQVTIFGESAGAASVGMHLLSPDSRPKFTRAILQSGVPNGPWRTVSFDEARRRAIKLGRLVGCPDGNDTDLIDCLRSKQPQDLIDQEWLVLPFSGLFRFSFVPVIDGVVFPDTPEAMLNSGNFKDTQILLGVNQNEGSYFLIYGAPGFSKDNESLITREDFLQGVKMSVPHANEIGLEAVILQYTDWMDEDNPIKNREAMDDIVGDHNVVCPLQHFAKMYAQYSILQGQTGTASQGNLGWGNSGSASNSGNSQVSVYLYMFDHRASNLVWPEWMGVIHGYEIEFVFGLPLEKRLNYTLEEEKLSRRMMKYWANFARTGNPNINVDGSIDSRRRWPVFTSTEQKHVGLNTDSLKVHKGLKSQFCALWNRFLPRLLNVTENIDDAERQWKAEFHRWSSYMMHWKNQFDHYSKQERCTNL
Briefly: biochemical. Conditions: for inhibition at 10 µM: read-out: % inhibition of EeAChE at 10 μM (footnote c); for IC50: Ellman method, pH 8.0. The protocol: (§1) The inhibitory activities of the tested compounds against EeAChE and eqBuChE were determined using the spectrophotometric procedure based on Ellman’s method. […] After a pre-incubation step, acetylthiocholine iodide (105 µL, final concentration 0.35 mM) or butyrylthiocholine iodide (150 µL, final concentration 0.5 mM) was added, and the mixture was incubated for an additional 15 min.
On the technique in general: DTNB colorimetry detects thiols as they appear.

The target in a further test is T2, equine BuChE (eqBuChE) (Equus caballus, UniProt P81908).
T2 construct: purchased Merck
T2 sequence (P81908 whole entry): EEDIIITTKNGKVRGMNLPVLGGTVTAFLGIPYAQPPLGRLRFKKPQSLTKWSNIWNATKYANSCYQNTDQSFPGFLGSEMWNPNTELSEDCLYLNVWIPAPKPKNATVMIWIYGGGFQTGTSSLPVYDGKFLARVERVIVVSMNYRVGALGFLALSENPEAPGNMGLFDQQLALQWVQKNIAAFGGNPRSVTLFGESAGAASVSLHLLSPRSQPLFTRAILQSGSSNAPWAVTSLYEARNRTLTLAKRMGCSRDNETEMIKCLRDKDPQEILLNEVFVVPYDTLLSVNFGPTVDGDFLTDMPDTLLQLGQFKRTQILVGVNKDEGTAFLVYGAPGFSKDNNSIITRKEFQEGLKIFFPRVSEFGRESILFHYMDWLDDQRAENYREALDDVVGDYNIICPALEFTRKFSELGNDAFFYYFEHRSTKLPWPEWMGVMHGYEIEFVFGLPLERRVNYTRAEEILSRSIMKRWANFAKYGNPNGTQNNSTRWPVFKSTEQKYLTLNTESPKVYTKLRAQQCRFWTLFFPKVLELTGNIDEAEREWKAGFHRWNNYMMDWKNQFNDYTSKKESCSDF
As to the kind of experiment: biochemical. Type of test: biochemical. Particulars: for inhibition at 10 µM: read-out: % inhibition of eqBuChE at 10 μM (footnote c); for IC50: pH 8.0. The procedure:
as §1

In a further test the target is T3, Aβ1–42 (Homo sapiens, UniProt P05067).
T3 construct: purchased Merck
T3 sequence (P05067 672-713): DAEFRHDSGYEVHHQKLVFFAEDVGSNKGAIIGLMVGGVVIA
Briefly: Aβ1–42 self-aggregation, thioflavin T-based fluorometric assay. Type of test: biochemical. Conditions: ThT assay; for inhibition at 50 µM (stock): [Aβ] = [Inhibitor] = 50 μM (Figure 1 legend). The procedure:
Curcumin was used as a positive control.
A ThT fluorescence assay evaluated the effect of the test compounds on Aβ1−42 fibril formation. Aβ stock solutions were diluted to 50 μM in ultrapure water before use. […] Control samples were prepared by replacing Aβ with 50 mM phosphate buffer (pH 7.4), with or without the inhibitors. After incubation, samples were diluted to 360 μL with 50 mM glycine-NaOH buffer (pH 8.0) containing thioflavin T (5 μM).

Test [2] is described as follows: ORAC-FL (Oxygen Radical Absorbance Capacity by Fluorescence) assay. Conditions: Trolox equivalents. The protocol: Briefly, fluorescein and the test compound were pre-incubated in a black 96-well microplate (Nunc) at 37 °C for 15 min. Then, 2,2′-azobis(amidinopropane) dihydrochloride was rapidly added using the integrated injector of a Varioskan Flash plate reader (Thermo Scientific). […] Each experiment was conducted in triplicate, with a minimum of three independent assays performed per compound.

For test [3] the following is noted: reported as a standard antioxidant; cited from earlier work.

As for `c1ccc(Nc2ncnc3ccccc23)cc1` [3a, 4-anilinoquinazoline], the inhibition at 10 µM (in test [1]; on equine BuChE (eqBuChE)) was less than 50% throughout. Besides, the inhibition (commonly the drop in the measured response relative to a control, in per cent) at 50 µM (stock) on Aβ1–42 stood at 10.3%.
For the compound `Cc1nc(Nc2ccccc2)c2ccccc2n1` [3b, 2-Methyl-4-anilinoquinazoline], the inhibition at 10 µM (in test [1]; on equine BuChE (eqBuChE)) was less than 50% in each case. The ORAC in test [2] is given as 0.51 ± 0.02 TE. In addition, the “Inhibition of Aβ1–42 self-aggregation (in words)” value on Aβ1–42 was “did not display measurable activity”.
Regarding `CCc1nc(Nc2ccccc2)c2ccccc2n1` [3c, 2-Ethyl-4-anilinoquinazoline], in test [1], the inhibition at 10 µM was less than 50%. The IC50 (in general, the midpoint of a concentration-inhibition curve) on equine BuChE (eqBuChE) (Ellman method) was found to be 5.34 ± 0.15 µM.
As to `COc1cc(Nc2ncnc3ccccc23)cc(OC)c1` [3d, 4-(3,5-Dimethoxyphenyl)aminoquinazoline], the inhibition at 10 µM (in test [1]; on equine BuChE (eqBuChE)) was less than 50% each time. At Aβ1–42, the “Inhibition of Aβ1–42 self-aggregation (in words)” value was “did not display measurable activity”.
In the case of `COc1cc(Nc2nc(C)nc3ccccc23)cc(OC)c1` [3e, 2-methyl-4-(3,5-Dimethoxyphenyl)aminoquinazoline], the values for the IC50 (in test [1]; on equine BuChE (eqBuChE) (Ellman method)) were 6.04 ± 1.05 µM and 9.43 ± 1.13 µM, respectively. In addition, the ORAC in test [2] was determined as 1.81 ± 0.19 TE. Further, the “Inhibition of Aβ1–42 self-aggregation (in words)” value at Aβ1–42 is “did not display measurable activity”.
Consider `CCc1nc(Nc2cc(OC)cc(OC)c2)c2ccccc2n1` [3f, 2-ethyl-4-(3,5-Dimethoxyphenyl)aminoquinazoline], for which the inhibition at 10 µM in test [1] is less than 50%. The IC50 against equine BuChE (eqBuChE) (Ellman method) was found to be 8.5 ± 1.16 µM. The ORAC in test [2] turned out to be 1.29 ± 0.08 TE. For the same compound, the inhibition at 50 µM (stock) against Aβ1–42 stood at 13.6%.
In the case of `COc1ccc(Nc2ncnc3ccccc23)cc1OC` [3g, 4-(3,4-Dimethoxyphenyl)aminoquinazoline], the inhibition at 10 µM (in test [1]; at equine BuChE (eqBuChE)) was less than 50% throughout. Also, the ORAC in test [2] was 5.46 TE and 5.46 ± 0.11 TE. For the same compound, the inhibition at 50 µM (stock) on Aβ1–42 was 14.7%.
Regarding `CCc1nc(Nc2ccc(OC)c(OC)c2)c2ccccc2n1` [3h, 2-ethyl-4-(3,4-Dimethoxyphenyl)aminoquinazoline], the IC50 in test [1] is 6.67 µM and 6.61 µM. Besides, on equine BuChE (eqBuChE) (Ellman method), the “eqBuChE inhibition (in words)” value was “inactive”. The inhibition at 10 µM at equine BuChE (eqBuChE) was less than 50%. Further, in test [2], the ORAC was 5.73 TE and 5.73 ± 0.39 TE. Besides, the inhibition at 50 µM (stock) against Aβ1–42 worked out at 36.7%.
With `Cc1ccc(Nc2ncnc3ccccc23)cc1` [3i, 4-(p-Tolyl)aminoquinazoline], the inhibition at 10 µM (in test [1]; on equine BuChE (eqBuChE)) was less than 50% in each case. For the same compound, the inhibition at 50 µM (stock) at Aβ1–42 worked out at 7.1%.
As for `Cc1ccc(Nc2nc(C)nc3ccccc23)cc1` [3j, 2-Methyl-4-(p-tolyl)aminoquinazoline], the inhibition at 10 µM (in test [1]; at equine BuChE (eqBuChE)) was less than 50% in each case. For the same compound, in test [2], the ORAC was 0.75 ± 0.08 TE. The same compound had an inhibition at 50 µM (stock) against Aβ1–42 of 21.2%.
On to `CCc1nc(Nc2ccc(C)cc2)c2ccccc2n1` [3k, 2-Ethyl-4-(p-tolyl)aminoquinazoline], for which the inhibition at 10 µM (in test [1]; on equine BuChE (eqBuChE)) was less than 50% in each case. For the same compound, the ORAC in test [2] amounted to 0.58 ± 0.04 TE. Further, at Aβ1–42, the inhibition at 50 µM (stock) worked out at 9.4%.
Turning to `Cc1cccc(Nc2ncnc3ccccc23)c1C` [3l, 4-(2,3-Dimethylphenyl)aminoquinazoline], the inhibition at 10 µM (in test [1]; on equine BuChE (eqBuChE)) was less than 50% each time. In test [2], the ORAC turned out to be 0.32 ± 0.05 TE. This compound had an inhibition at 50 µM (stock) at Aβ1–42 of 8.74%.
In the case of `Cc1nc(Nc2cccc(C)c2C)c2ccccc2n1` [3m, 2-methyl-4-(2,3-Dimethylphenyl)aminoquinazoline], the inhibition at 10 µM (in test [1]; at equine BuChE (eqBuChE)) was less than 50% throughout. In addition, at Aβ1–42, the inhibition at 50 µM (stock) stood at 15.8%.
Take `O=[N+]([O-])c1ccc(Nc2ncnc3ccccc23)cc1` [3n, 4-(4-Nitrophenyl)aminoquinazoline]: the inhibition at 10 µM (in test [1]; at equine BuChE (eqBuChE)) was less than 50% in each case. The same compound displayed an inhibition at 50 µM (stock) against Aβ1–42 of 6.57%.
For the compound `Cc1nc(Nc2ccc([N+](=O)[O-])cc2)c2ccccc2n1` [3o, 2-Methyl-4-(4-nitrophenyl)aminoquinazoline], the inhibition at 10 µM (in test [1]; on equine BuChE (eqBuChE)) was less than 50% throughout. In addition, the ORAC in test [2] was found to be 0.36 ± 0.01 TE. This compound also had an inhibition at 50 µM (stock) against Aβ1–42 of 13.7%.
As for `Clc1ccc(Nc2ncnc3ccccc23)cc1` [3p, 4-(4-Chlorophenyl)aminoquinazoline], the inhibition at 10 µM (in test [1]; at equine BuChE (eqBuChE)) was less than 50% throughout. The ORAC in test [2] is 0.40 ± 0.07 TE. For the same compound, the “Inhibition of Aβ1–42 self-aggregation (in words)” value at Aβ1–42 was “inactive; also recorded: did not display measurable activity”.
For `CCc1nc(Nc2ccc(Cl)cc2)c2ccccc2n1` [3q, 2-ethyl-4-(4-Chlorophenyl)aminoquinazoline], in test [1], the inhibition at 10 µM is less than 50%. The compound further showed an IC50 on equine BuChE (eqBuChE) (Ellman method) of 8.64 ± 0.3 µM. At Aβ1–42, this compound had an inhibition at 50 µM (stock) of 1.45%.
For `COc1cc(/C=C/C(=O)CC(=O)/C=C/c2ccc(O)c(OC)c2)ccc1O` [Curcumin, reference compound], the inhibition at 50 µM (stock) against Aβ1–42 is 58%.
With `COc1cc(/C=C/C(=O)O)ccc1O` [ferulic acid], the ORAC in test [3] is 3.7 TE.
